Data from patent US20040249122A1, “Cationic, amphipathic beta-sheet peptides and uses thereof” (priority 2003, published 2004).
≈ marks a conversion by molar mass, not a printed value. Where a SMILES comes first, the peptide text is derived from it.

Legend:
microorganisms = conditions: literature (52, 54); E. coli, S. aureus, P. aeruginosa for FKVKFKVKVK; cited from earlier work
[1] = test system: Candida albicans (ATCC 14053); conditions: ATCC 14053
Protocol: (§1) Antimicrobial and Hemolytic Assays. Antimicrobial susceptibility testing against Staphylococcus aureus (ATCC 29213), Escherichia coli (ATCC 25922), and Pseudomonas aeruginosa (ATCC 27853) was performed using a modification of the National Committee for Clinical Laboratory Standards microdilution broth assay (22). Mueller-Hinton broth (BBL) was used for diluting the peptide stock solution and for diluting the bacterial inoculum. The inoculum was prepared from mid-logarithmic phase cultures. Microtiter plate wells received aliquots-of 100 μL each of the inoculum and peptide dilution. The final concentration of peptide solution ranged-from 0.25 to 256 μg/mL in two-fold dilutions. The final concentration of bacteria in the wells was 5×10^5 CFU/mL. Peptides were tested in duplicate. In addition to the test peptide, three standard peptides and a non-treated growth control were included to validate the assay. The microtiter plates were incubated overnight at 37° C. and the absorbance was measured at 600 nm. […] After incubation at 37° C. for 30 min, the suspension was centrifuged at 10,000×g for 10 min and the absorbance at 400 nm was measured. Complete hemolysis was determined by adding 0.2% Triton X-100 in place of the peptide.
Antimicrobial susceptibility testing against Escherichia coli (ATCC 25922), Staphylococcus aureus (ATCC 29213), Pseudomonas aeruginosa (ATCC 27853), and Candida albicans (ATCC 14053) is performed using a modification of the National Committee for Clinical Laboratory Standards microdilution broth assay. Mueller-Hinton broth (BBL) is used for diluting the peptide stock solution and for diluting the bacterial inoculum. The inoculum is prepared from midlogarithmic phase cultures at an approximate concentration of 10^6 CFU/mL. Microtiter plate wells receive aliquots of 0.1 mL each of the inoculum and peptide dilution. The final concentration of the peptide solution ranges from 0.25 to 256 μg/mL in 2-fold dilutions. The microtiter plates are incubated overnight at 37° C.

[2] = Peptide-induced leakage from calcein-loaded LUV
human erythrocytes = assay: Hemolysis of human erythrocytes; type: cell-based; conditions: red cells of human, 500
Protocol: as §1, with “Microtiter plate wells received aliquots-of 100 μL each of the inoculum and peptide dilution.” left out, “measured.” for “measured. Complete hemolysis was determined by adding 0.2% Triton X-100 in place of the peptide.”

[3] = test system: Staphylococcus aureus (ATCC 29213); type: cell-based; conditions: ATCC 29213
[4] = test system: Pseudomonas aeruginosa (ATCC 27853); type: cell-based; conditions: ATCC 27853
[5] = test system: Escherichia coli (ATCC 25922); type: cell-based; conditions: ATCC 25922

Compound | antimicrobial or hemolytic activity as reported in the literature (microorganisms) | Minimum Inhibitory Concentration, C. albicans [1] | calcein leakage from LUV (in words) ([2]; 4:1 POPE/POPG LUV) | calcein leakage from LUV (in words) ([2]; POPC (PC) LUV) | % Hemolysis (500 μg/mL) (human erythrocytes) | MIC Staph. aureus [3] | Minimum Inhibitory Concentration, S. aureus [3] | MIC Pseud. aerug [4] | Minimum Inhibitory Concentration, P. aeruginosa [4] | MIC E. coli [5] | Minimum Inhibitory Concentration, E. coli [5]
FKVKFKVKVK (artificial mutant) | able to inhibit the growth |  |  |  |  |  |  |  |  |  | 
CC[C@H](C)[C@H](NC(=O)[C@H](CCCCN)NC(=O)CNC(=O)[C@H](C)NC(=O)[C@@H](NC(=O)[C@H](CCCCN)NC(=O)[C@H](C)NC(=O)[C@@H](NC(=O)[C@H](CCCCN)NC(=O)CNC(=O)[C@H](C)NC(=O)[C@@H](NC(=O)[C@H](CCCCN)NC(=O)[C@H](C)NC(=O)[C@@H](NC(=O)[C@H](CCCCN)NC(=O)CNC(=O)[C@H](C)NC(=O)[C@@H](NC(=O)[C@@H](N)CCCCN)[C@@H](C)CC)[C@@H](C)CC)[C@@H](C)CC)[C@@H](C)CC)[C@@H](C)CC)C(=O)N[C@@H](C)C(N)=O [(KIAGKIA)3-NH2, KIAGKIAKIAGKIAKIAGKIA -NH2, reference compound] (H-KIAGKIAKIAGKIAKIAGKIA-NH2; N-terminus assumed) |  | 64 µg/mL | most potent | not very effective | 9% | 8 µg/mL (≈ 3.88 µM) | 8 µg/mL | 32 µg/mL (≈ 15.5 µM) | 32 µg/mL | 8 µg/mL (≈ 3.88 µM) | 8 µg/mL
